Source: patent publication US6461997B1, “Triazole sulfones having herbicidal activity” (Monsanto Technology LLC, priority 1999, dated 2002)

What was measured:
PANDI (fall panicum) = assay: Pre-plant incorporated (PPI) herbicidal activity, warm season; format: in vivo, Panicum dichotomiflorum; details: for Percent inhibition PANDI: PPI application; for PPI activity GR80, PANDI: pre-plant incorporated, lowest tested rate with 80% or greater inhibition, about 14 days
Description: (§1) In another set of tests, the pre-plant incorporated (PPI) activity of compounds of this invention was evaluated on the same species as for the pre-emergence tests described above. In the PPI tests the following procedure, designed to simulate PPI application, was used.
(§2) A pre-prepared topsoil mixture (described above) was placed in a pot and compacted to a depth of 1.0 to 1.25 cm from the top of the pot. Seeds of each of several monocotyledonous and dicotyledonous annual plant species were placed on top of the soil. A sufficient quantity of soil to cover the seeds and level fill the pot was weighed into an open container. A known amount of the test compound was dissolved or suspended in an organic solvent and applied by spraying to this cover soil. The cover soil was thoroughly mixed to distribute the test compound throughout the cover soil, and was then applied as a cover layer over the seeds. Untreated soil was used as a cover layer for control pots. After treatment the plants were placed in a greenhouse where they received 0.64 cm of overhead irrigation. All subsequent watering consisted of a light overhead mist and/or subirrigation as needed for germination and growth. Tables 9 and 10 below relate to warm season plant species which were placed after pre-emergence treatment in a greenhouse with a 30/21° C. day/night temperature regime. Tables 11 and 12 below relates to cool season plant species placed after pre-emergence treatment in a greenhouse or growth chamber with an 18/13° C. day/night temperature regime. Only the compounds of Examples 1, 6, 8, 11, 13 and 15-20 were included in PPI tests.
(§3) Approximately 14 days after planting and treating, the plants were observed and herbicidal efficacy recorded as percent inhibition by comparison with untreated plants.

[1] = test system: BRAPP (broadleaf signalgrass); assay: as above; format: in vivo, Brachiaria platyphylla; details: for Percent inhibition BRAPP: PPI application; for PPI activity GR80, BRAPP: pre-plant incorporated, lowest tested rate with 80% or greater inhibition, about 14 days
Description: as §1, §2, §3

SETFA (giant foxtail) = assay: as above; format: in vivo, Setaria faberi; details: for Percent inhibition SETFA: PPI application; for PPI activity GR80, SETFA: pre-plant incorporated, lowest tested rate with 80% or greater inhibition, about 14 days
Description: as §1, §2, §3

SORVU (shattercane) = assay: Pre-emergence herbicidal activity, warm season; format: in vivo, Sorghum vulgare; details: GR80 = lowest tested rate (300, 100, 30, 10 g/ha) with 80% or greater inhibition; approx. 14 days after treating; 30/21° C.
Outline: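 GR80 values derive from percent inhibition relative to untreated plants, read roughly 14 days after sowing and pre-emergence soil-surface treatment (compound in 50:50 acetone/water; rates typically 10, 30, 100, 300 g/ha). Warm-season weeds grew at 30/21° C day/night, cool-season ones at 18/13° C; an asterisk marks activity without reaching 80% at the highest rate.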

SINAR (wild mustard) = assay: Pre-plant incorporated (PPI) herbicidal activity, cool season; format: in vivo, Sinapis arvensis; details: for Percent inhibition SINAR: weed, PPI application; for PPI activity GR80, SINAR: pre-plant incorporated, lowest tested rate with 80% or greater inhibition, about 14 days
Description: as §1, §2, §3

Row | Structure (SMILES) | Percent inhibition PANDI (PANDI (fall panicum); 30 g/ha) [%] | Percent inhibition PANDI (PANDI (fall panicum); 100 g/ha) [%] | Percent inhibition PANDI (PANDI (fall panicum); 300 g/ha) [%] | Percent inhibition PANDI (PANDI (fall panicum); 900 g/ha) [%] | Percent inhibition BRAPP ([1]; 30 g/ha) [%] | Percent inhibition BRAPP ([1]; 100 g/ha) [%] | Percent inhibition BRAPP ([1]; 300 g/ha) [%] | Percent inhibition BRAPP ([1]; 900 g/ha) [%] | Percent inhibition SETFA (SETFA (giant foxtail); 30 g/ha) [%] | Percent inhibition SETFA (SETFA (giant foxtail); 100 g/ha) [%] | Percent inhibition SETFA (SETFA (giant foxtail); 300 g/ha) [%] | Percent inhibition SETFA (SETFA (giant foxtail); 900 g/ha) [%] | Pre-emergence activity (GR80) SORVU (SORVU (shattercane)) | Percent inhibition SINAR (SINAR (wild mustard); 30 g/ha) [%] | Percent inhibition SINAR (SINAR (wild mustard); 100 g/ha) [%] | Percent inhibition SINAR (SINAR (wild mustard); 300 g/ha) [%] | Percent inhibition SINAR (SINAR (wild mustard); 900 g/ha) [%] | PPI activity GR80, PANDI (PANDI (fall panicum)) [g/ha] | PPI activity GR80, BRAPP [1] [g/ha] | PPI activity GR80, SETFA (SETFA (giant foxtail)) [g/ha] | other results
1 | CCN(CC)C(=O)n1cnc(S(=O)(=O)C(F)(F)F)n1 [Example 2] | 100 | 100 | 100 | 100 | 80 | 50 | 90 | 70 | 20 | 100 | 100 | 90 | 300 g/ha | 10 | 100 | 100 | 100 |  |  |  | 
2 | CCN(CC)C(=O)n1cnc(S(=O)(=O)C(F)(F)C(F)F)n1 [Example 16] | 100 | 100 | 100 | 100 | 60 | 100 | 100 | 100 | 80 | 100 | 100 | 100 | 100 g/ha | 50 | 100 | 100 | 100 | 10 | 10 | 10 | Percent inhibition PANDI (PANDI (fall panicum); 10 g/ha): 0%; Percent inhibition BRAPP ([1]; 10 g/ha): 20%; Percent inhibition SETFA (SETFA (giant foxtail); 10 g/ha): 80%; PPI activity GR80, SINAR (SINAR (wild mustard)): 10 g/ha; Percent inhibition SINAR (SINAR (wild mustard); 10 g/ha): 0%
3 | CCN(CC)C(=O)n1cnc(S(=O)(=O)C(F)(F)C(F)(F)Br)n1 [Example 4] | 0 | 100 | 100 | 100 | 0 | 60 | 100 | 100 | 100 | 100 | 100 | 100 | * (activity observed, at least at highest rate, but <80% inhibition) | 95 | 100 | 100 | 100 |  |  |  | 
4 | CCN(CC)C(=O)n1cnc(S(=O)(=O)C(F)(F)Cl)n1 [Example 3] | 80 | 100 | 100 | 100 | 30 | 100 | 100 | 90 | 100 | 100 | 100 | 100 | 100 g/ha | 100 | 100 | 100 | 100 |  |  |  | 
5 | CCN(CC)C(=O)n1cnc(S(=O)(=O)C(F)(F)C(=O)c2ccccc2)n1 [Example 6] |  |  |  |  |  |  |  |  |  |  |  |  | * (activity observed, at least at highest rate, but <80% inhibition) |  |  |  |  | 100 | 300 | 100 | PPI activity GR80, SINAR (SINAR (wild mustard)): 300 g/ha
